The text below walks through data of PubChem BioAssay (NCI).

Test systems include TK-10 renal; SK-MEL-2 melanoma; SK-MEL-28 melanoma; HOP-92 NSCLC; NCI-H226 lung; LOX IMVI melanoma; RPMI-8226 leukemia; MALME-3M melanoma; SF-268 CNS; OVCAR-5 ovarian.
Common to all, as to experiment: inhibition of tumour cell growth, NCI panel, 48 h

The structures appear in SMILES notation. Where “and” joins values, the source holds several entries; their conditions need not be identical. Equal entries are not always repeated.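 Growth conditions: 96-well plates. Treatment: test compound, 48 hours, 5 concentrations. Analysis: linear interpolation between bracketing concentrations; unreached endpoints set to highest concentration. GI50 marks 50% less growth. At the TGI there is no net growth.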 A value given as a limit tells only on which side of the number the result lay.

For the molecule `CCN(CC)c1ccc(/C=C2/NC(=O)NC2=O)cc1`, the GI50 in the assay on TK-10 renal was 9.56 µM; in the assay with SK-MEL-2 melanoma, 3.03 µM; in the assay on SK-MEL-28 melanoma, 15.9 µM; with HOP-92 NSCLC it was 9.01 µM; in the assay with NCI-H226 lung, greater than 95.2 µM; in the assay with LOX IMVI melanoma, 9.73 µM. For the same molecule, the GI50 is 5.34 µM in the assay on RPMI-8226 leukemia, 16 µM in the assay on MALME-3M melanoma, 4.39 µM with SF-268 CNS and 10.5 µM with OVCAR-5 ovarian. The TGI is greater than 100 µM with TK-10 renal; greater than 31.4 µM in the assay with SK-MEL-2 melanoma; greater than 100 µM with SK-MEL-28 melanoma; greater than 93.1 µM with HOP-92 NSCLC; greater than 100 µM in the assay with NCI-H226 lung; greater than 100 µM in the assay on LOX IMVI melanoma. Moreover, the TGI in the assay with RPMI-8226 leukemia was greater than 100 µM; in the assay with MALME-3M melanoma, greater than 100 µM; in the assay on SF-268 CNS, greater than 35.8 µM; with OVCAR-5 ovarian it was greater than 100 µM.

For the molecule `O=[N+]([O-])C1(CO)COC2(OC1)c1ccccc1-c1ccccc12`, the TGI in the assay with TK-10 renal is greater than 100 µM; with SK-MEL-2 melanoma, greater than 100 µM; in the assay with SK-MEL-28 melanoma, greater than 100 µM; in the assay with HOP-92 NSCLC, greater than 95.7 µM; in the assay with NCI-H226 lung, greater than 100 µM; in the assay with LOX IMVI melanoma it was 67.7 µM. In addition, the TGI is 70.1 µM in the assay on RPMI-8226 leukemia, 73.9 µM in the assay with MALME-3M melanoma, greater than 93.2 µM in the assay on SF-268 CNS and greater than 100 µM in the assay on OVCAR-5 ovarian.

As for `COc1ccc2nc(NC(=O)C(=O)C(C#N)c3ccc(CC#N)cc3)sc2c1` (stereo not drawn), the TGI in the assay on TK-10 renal, with SK-MEL-2 melanoma, in the assay with SK-MEL-28 melanoma, in the assay with HOP-92 NSCLC, with NCI-H226 lung and in the assay with LOX IMVI melanoma was greater than 100 µM each time. Moreover, the TGI in the assay with RPMI-8226 leukemia, with MALME-3M melanoma, in the assay on SF-268 CNS and in the assay on OVCAR-5 ovarian was greater than 100 µM each time.

For `Nc1cc2ccncc2c2ccccc12`, the GI50 in the assay with TK-10 renal was 20.2 µM; in the assay with SK-MEL-2 melanoma, 13.6 µM; with SK-MEL-28 melanoma, 16.6 µM; in the assay on HOP-92 NSCLC, 19.6 µM; in the assay on NCI-H226 lung, 5.75 µM; in the assay on LOX IMVI melanoma it was 8.68 µM. The GI50 with RPMI-8226 leukemia was 11.6 µM; in the assay with MALME-3M melanoma, 15.7 µM; in the assay on SF-268 CNS it was 11.1 µM; in the assay on OVCAR-5 ovarian, 18.7 µM. For the same molecule, the TGI is 91.1 µM in the assay on TK-10 renal; 30 µM in the assay on SK-MEL-2 melanoma; 33.6 µM in the assay with SK-MEL-28 melanoma; 68.9 µM in the assay on HOP-92 NSCLC; 73.6 µM in the assay on NCI-H226 lung; greater than 100 µM in the assay on LOX IMVI melanoma. In addition, the TGI stood at 63.5 µM in the assay on RPMI-8226 leukemia, 31.4 µM in the assay on MALME-3M melanoma, 52.5 µM with SF-268 CNS and 88.1 µM in the assay with OVCAR-5 ovarian.

On to `COc1ccc(CN[C@H]2CCc3cc(OC)c(OC)c(OC)c3-c3ccc(SC)c(=O)cc32)c(OC)c1OC`, for which the TGI in the assay with TK-10 renal was greater than 100 µM; with SK-MEL-28 melanoma, greater than 100 µM; with HOP-92 NSCLC, 77.2 µM; in the assay on NCI-H226 lung, 0.0736 µM and 0.0509 µM; in the assay on LOX IMVI melanoma it was 15.7 µM; in the assay on RPMI-8226 leukemia, 31.5 µM. In addition, the TGI in the assay on MALME-3M melanoma and with OVCAR-5 ovarian was greater than 100 µM throughout. In addition, the GI50 with SK-MEL-2 melanoma is 0.0118 µM; with SK-MEL-28 melanoma, 0.0101 µM; in the assay with HOP-92 NSCLC, 0.0295 µM; with NCI-H226 lung, 0.0172 µM; in the assay on LOX IMVI melanoma, less than 0.01 µM; in the assay with RPMI-8226 leukemia it was 0.0254 µM. Further, the GI50 with MALME-3M melanoma is less than 0.01 µM; in the assay with SF-268 CNS, 0.0111 µM; with OVCAR-5 ovarian, greater than 100 µM.

As for `CO[C@H]1/C=C/C=C/C=C/C[C@H](OC(=O)[C@@H](C)NC(=O)C2CCCCC2)[C@H](C)[C@@H](O)/C(C)=C\CCC2=CC(=O)C=C(NC(=O)C1)C2=O`, the GI50 with TK-10 renal is 0.274 µM; in the assay on SK-MEL-2 melanoma, 0.131 µM; with SK-MEL-28 melanoma, 0.102 µM; in the assay with HOP-92 NSCLC, 0.162 µM; in the assay on NCI-H226 lung it was 0.157 µM; with LOX IMVI melanoma it was 0.104 µM. Moreover, the GI50 was 0.111 µM in the assay with RPMI-8226 leukemia, 0.113 µM in the assay on MALME-3M melanoma, 0.123 µM in the assay with SF-268 CNS and 0.324 µM with OVCAR-5 ovarian. Moreover, the TGI in the assay on TK-10 renal came to 2.31 µM; in the assay on SK-MEL-2 melanoma it was 0.715 µM; in the assay with SK-MEL-28 melanoma, 0.49 µM; in the assay with HOP-92 NSCLC, 1.98 µM; with NCI-H226 lung, 0.797 µM; in the assay on LOX IMVI melanoma, 0.547 µM. For the same molecule, the TGI with RPMI-8226 leukemia was 0.327 µM; in the assay on MALME-3M melanoma, 0.801 µM; in the assay on SF-268 CNS, 1.01 µM; in the assay with OVCAR-5 ovarian, 2.89 µM.

Turning to `COc1cc2ccc(C(=O)O)cc2cc1OC`, the TGI with TK-10 renal, in the assay on SK-MEL-2 melanoma, in the assay on SK-MEL-28 melanoma, in the assay with HOP-92 NSCLC, with NCI-H226 lung and with LOX IMVI melanoma was greater than 100 µM in each case. Moreover, the TGI in the assay with RPMI-8226 leukemia, with MALME-3M melanoma, in the assay on SF-268 CNS and with OVCAR-5 ovarian was greater than 100 µM each time.

Turning to `COc1cc2cc(C(=O)N3C[C@H](CCl)c4c3cc(O)c3ccccc43)[nH]c2c(OC)c1OC`, the GI50 in the assay with TK-10 renal was 0.0571 µM; in the assay with NCI-H226 lung it was 1.79 µM; in the assay on LOX IMVI melanoma, 0.0201 µM; in the assay with RPMI-8226 leukemia, less than 0.01 µM; in the assay with MALME-3M melanoma, 0.0259 µM; in the assay with SF-268 CNS it was 0.0169 µM. The GI50 in the assay with OVCAR-5 ovarian is 0.0237 µM. Further, the TGI in the assay with TK-10 renal was greater than 100 µM; with SK-MEL-2 melanoma, 0.461 µM; in the assay with SK-MEL-28 melanoma it was 1.99 µM; in the assay with HOP-92 NSCLC, 2.65 µM; in the assay on NCI-H226 lung it was 0.504 µM and 3.38 µM; in the assay with LOX IMVI melanoma, 1.83 µM and 12.3 µM. In addition, the TGI was 0.442 µM and 0.0827 µM with MALME-3M melanoma; 0.563 µM and 4.99 µM in the assay with SF-268 CNS; 2.15 µM and 13.7 µM in the assay with OVCAR-5 ovarian.
